Assay results taken from patent publication US8557796B2, “Substituted 1-oxa-2,8-diaza-spiro [4,5] dec-2-ene derivatives and related treatment methods” (Gruenenthal GmbH, priority 2001, dated 2013).

Target: T1, NA transporter (Rattus norvegicus, UniProt Q9WTR4)
T1 construct: synaptosomes from rat brain regions were freshly isolated; from tissue; host or cells: P2 synaptosome fraction from hypothalamus of male rat brain
Test: Noradrenalin uptake inhibition (NA-uptake) in synaptosomes
Format: biochemical
Conditions: rat hypothalamus synaptosomes
Source text: Tests on Noradrenalin Uptake Inhibition (NA-Uptake Inhibition)
In order to be able to carry out these in vitro studies, synaptosomes from rat brain regions were freshly isolated.

T1 sequence (Q9WTR4 1-597): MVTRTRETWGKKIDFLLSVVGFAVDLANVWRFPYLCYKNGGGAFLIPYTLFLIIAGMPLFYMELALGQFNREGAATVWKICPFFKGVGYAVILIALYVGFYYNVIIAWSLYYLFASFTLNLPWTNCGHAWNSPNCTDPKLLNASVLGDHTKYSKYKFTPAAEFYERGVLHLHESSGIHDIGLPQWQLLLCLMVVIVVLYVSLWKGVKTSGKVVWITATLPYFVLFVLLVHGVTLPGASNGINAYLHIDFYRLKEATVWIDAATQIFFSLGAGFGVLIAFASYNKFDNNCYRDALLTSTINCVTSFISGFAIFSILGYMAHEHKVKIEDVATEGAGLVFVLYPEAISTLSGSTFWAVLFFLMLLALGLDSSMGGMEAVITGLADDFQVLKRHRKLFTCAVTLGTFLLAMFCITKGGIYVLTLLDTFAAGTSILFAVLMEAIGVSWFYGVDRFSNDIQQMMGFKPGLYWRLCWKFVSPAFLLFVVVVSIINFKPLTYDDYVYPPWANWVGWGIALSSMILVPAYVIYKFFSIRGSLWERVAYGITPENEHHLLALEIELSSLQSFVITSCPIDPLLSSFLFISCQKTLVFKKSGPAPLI

| SMILES | NA-uptake, 10 μM, % inhibition [%] | inhibition at 10 µM [%] |
| --- | --- | --- |
| O=C(NCCc1cccc(C(F)(F)F)c1)C1=NOC2(CCN(S(=O)(=O)c3ccc(F)cc3)CC2)C1 [Example 196] | 40 |  |
| O=C(NCC1CC1)C1=NOC2(CCN(C(=O)c3ccc(SC(F)(F)F)cc3)CC2)C1 [Example 108, 8-(4-trifluoromethylsulphanyl-benzoyl)-1-oxa-2,8-diaza-spiro[4,5]dec-2-ene-3-carboxylic acid cyclopropylmethyl-amide] |  | 42 |
| O=C(NCc1ccccc1)C1=NOC2(CCN(C(=O)COc3cccc(Cl)c3)CC2)C1 [Example 166, 8-[2-(3-chloro-phenoxy)-acetyl]-1-oxa-2,8-diaza-spiro[4,5]dec-2-ene-3-carboxylic acid benzylamide] |  | 53 |
| Cc1ccc(F)c(C(=O)N2CCC3(CC2)CC(C(=O)NCc2cccs2)=NO3)c1F [Example 170, 8-(2,6-difluoro-3-methyl-benzoyl)-1-oxa-2,8-diaza-spiro[4,5]dec-2-ene-3-carboxylic acid (thiophen-2-ylmethyl)-amide] |  | 43 |
| Cc1oc(C(C)(C)C)cc1C(=O)N1CCC2(CC1)CC(C(=O)NC1CCCC1)=NO2 [Example 126, 8-(5-tert-butyl-2-methyl-furan-3-carbonyl)-1-oxa-2,8-diaza-spiro[4,5]dec-2-ene-3-carboxylic acid cyclopentylamide] |  | 67 |
| CCN(CCNC(=O)C1=NOC2(CCN(S(=O)(=O)N(C)C)CC2)C1)c1cccc(C)c1 [Example 216, 8-dimethylsulphamoyl-1-oxa-2,8-diaza-spiro[4,5]dec-2-ene-3-carboxylic acid [2-(ethyl-m-tolyl-amino)-ethyl]amide] |  | 40 |
| CCSCCNC(=O)C1=NOC2(CCN(C(=O)c3cc(C(C)(C)C)nn3C)CC2)C1 [Example 185, 8-(5-tert-butyl-2-methyl-2H-pyrazole-3-carbonyl)-1-oxa-2,8-diaza-spiro[4,5]dec-2-ene-3-carboxylic acid (2-ethylsulphanyl-ethyl)-amide] |  | 45 |
| O=C(NCC1CC1)C1=NOC2(CCN(C(=O)c3ccc4ccccc4c3)CC2)C1 [Example 204, 8-(naphthalene-2-carbonyl)-1-oxa-2,8-diaza-spiro[4,5]dec-2-ene-3-carboxylic acid cyclopropylmethyl-amide] |  | 48 |
| CC(Cc1ccc(Cl)cc1)NC(=O)C1=NOC2(CCN(S(=O)(=O)c3ccc(Cl)s3)CC2)C1 (centres unmarked) [Example 168, 8-(5-chloro-thiophene-2-sulphonyl)-1-oxa-2,8-diaza-spiro[4,5]dec-2-ene-3-carboxylic acid [2-(4-chloro-phenyl)-1-methyl-ethyl]-amide] |  | 79 |
| O=C(NCc1ccncc1)C1=NOC2(CCN(C(=O)c3ccc(OC(F)(F)F)cc3)CC2)C1 [Example 187, 8-(4-trifluoromethoxy-benzoyl)-1-oxa-2,8-diaza-spiro[4,5]dec-2-ene-3-carboxylic acid (pyridin-4-ylmethyl)-amide] |  | 44 |
| O=C(NCCc1ccccc1)C1=NOC2(CCN(S(=O)(=O)Cc3ccccc3)CC2)C1 [Example 12, 8-phenylmethanesulphonyl-1-oxa-2,8-diaza-spiro[4,5]dec-2-ene-3-carboxylic acid phenethyl-amide] |  | 54 |
| CC(C)CC(NC(=O)C1=NOC2(CCN(S(=O)(=O)c3cccc(C(F)(F)F)c3)CC2)C1)C(=O)OC(C)(C)C (centres unmarked) [Example 214, 4-methyl-2-{[8-(3-trifluoromethyl-benzenesulphonyl)-1-oxa-2,8-diaza-spiro[4,5]dec-2-ene-3-carbonyl]-amino}-pentanoic acid tert-butyl ester] |  | 45 |
| O=C(NCCN1CCCC1)C1=NOC2(CCN(S(=O)(=O)c3ccc(F)c(Cl)c3)CC2)C1 [Example 11] | 41 |  |
| O=C(C1=NOC2(CCN(S(=O)(=O)Cc3ccccc3)CC2)C1)N1CCN(c2ccccn2)CC1 [Example 134, (8-phenylmethanesulphonyl-1-oxa-2,8-diaza-spiro[4,5]dec-2-en-3-yl)-(4-pyridin-2-yl-piperazin-1-yl)-methanone] |  | 51 |
| O=C(NCc1cccc(Cl)c1)C1=NOC2(CCN(S(=O)(=O)c3cccc(C(F)(F)F)c3)CC2)C1 [Example 132, 8-(3-trifluoromethyl-benzenesulphonyl)-1-oxa-2,8-diaza-spiro[4,5]dec-2-ene-3-carboxylic acid 3-chlorobenzylamide] |  | 46 |
| Cc1oc(C(C)(C)C)cc1C(=O)N1CCC2(CC1)CC(C(=O)NCC(C)C)=NO2 [Example 105, 8-(5-tert-butyl-2-methyl-furan-3-carbonyl)-1-oxa-2,8-diaza-spiro[4,5]dec-2-ene-3-carboxylic acid isobutyl-amide] |  | 53 |
| O=C(NCc1cccs1)C1=NOC2(CCN(S(=O)(=O)c3ccc(Cl)cc3)CC2)C1 [Example 127, 8-(4-chloro-benzenesulphonyl)-1-oxa-2,8-diaza-spiro[4,5]dec-2-ene-3-carboxylic acid (thiophen-2-ylmethyl)-amide] |  | 51 |

| SMILES | NA-uptake, 10 μM, % inhibition [%] | inhibition at 10 µM [%] |
| --- | --- | --- |
| CC(Oc1ccccc1)C(=O)N1CCC2(CC1)CC(C(=O)NCC1CC1)=NO2 (centres unmarked) [Example 123, 8-(2-phenoxy-propionyl)-1-oxa-2,8-diaza-spiro[4,5]dec-2-ene-3-carboxylic acid cyclopropylmethyl-amide] |  | 42 |
| O=C(NCCc1ccc(F)cc1)C1=NOC2(CCN(S(=O)(=O)c3ccc(OC(F)(F)F)cc3)CC2)C1 [Example 129, 8-(4-trifluoromethoxy-benzenesulphonyl)-1-oxa-2,8-diaza-spiro[4,5]dec-2-ene-3-carboxylic acid [2-(4-fluorophenyl)-ethyl]-amide] |  | 43 |
| Cc1ccc(S(=O)(=O)N2CCC3(CC2)CC(C(=O)Nc2ccc(Oc4ccccc4)cc2)=NO3)cc1 [Example 22, 8-(toluene-4-sulphonyl)-1-oxa-2,8-diaza-spiro[4,5]dec-2-ene-3-carboxylic acid (4-phenoxy-phenyl)-amide] |  | 42 |
| COc1ccc(C(=O)N2CCC3(CC2)CC(C(=O)NCc2ccccc2)=NO3)cc1 [Example 131, 8-(4-methoxy-benzoyl)-1-oxa-2,8-diaza-spiro[4,5]dec-2-ene-3-carboxylic acid benzylamide] |  | 57 |
| O=C(OCc1ccccc1)N1CCN(C(=O)C2=NOC3(CCN(S(=O)(=O)c4ccc(F)cc4)CC3)C2)CC1 [Example 143] | 47 |  |
| O=C(NCc1cccs1)C1=NOC2(CCN(C(=O)c3ccc(Br)cc3)CC2)C1 [Example 141] | 61 |  |
| CCSCCNC(=O)C1=NOC2(CCN(S(=O)(=O)CC34CCC(CC3=O)C4(C)C)CC2)C1 (centres unmarked) [Example 111, 8-(7,7-dimethyl-2-oxo-bicyclo[2.2.1]hept-1-ylmethane-sulphonyl)-1-oxa-2,8-diaza-spiro[4,5]dec-2-ene-3-carboxylic acid (2-ethylsulphanyl-ethyl)-amide] |  | 40 |
| CC(NC(=O)C1=NOC2(CCN(S(=O)(=O)c3cccs3)CC2)C1)c1ccccc1 (centres unmarked) [Example 8, 8-(thiophene-2-sulphonyl)-1-oxa-2,8-diaza-spiro[4,5]dec-2-ene-3-carboxylic acid (1-phenyl-ethyl)-amide] |  | 48 |
| COc1cccc(CCNC(=O)C2=NOC3(CCN(S(=O)(=O)c4ccc(F)cc4)CC3)C2)c1 [Example 124, 8-(4-fluoro-benzenesulphonyl)-1-oxa-2,8-diaza-spiro[4,5]dec-2-ene-3-carboxylic acid [2-(3-methoxy-phenyl)-ethyl]-amide] |  | 49 |
| CCOC(=O)C1CCCCN1C(=O)C1=NOC2(CCN(C(=O)c3ccc(C(C)(C)C)cc3)CC2)C1 (centres unmarked) [Example 195, 1-[8-(4-tert-butyl-benzoyl)-1-oxa-2,8-diaza-spiro[4,5]dec-2-ene-3-carbonyl]-piperidine-2-carboxylic acid ethyl ester] |  | 41 |
| O=C(C1=NOC2(CCN(S(=O)(=O)c3cccc(C(F)(F)F)c3)CC2)C1)N1CCC(Cc2ccccc2)CC1 [Example 211, (4-benzyl-piperidin-l-yl)-[8-(3-trifluoromethyl-benzene-sulphonyl)-1-oxa-2,8-diaza-spiro[4,5]dec-2-en-3-yl]-methanone] | 49 |  |
| O=C(NC1CCCC1OCc1ccccc1)C1=NOC2(CCN(S(=O)(=O)Cc3ccccc3)CC2)C1 (centres unmarked) [Example 20, 8-phenylmethanesulphonyl-1-oxa-2,8-diaza-spiro[4,5]dec-2-ene-3-carboxylic acid (2-benzyloxy-cyclopentyl)-amide] |  | 70 |
| O=C(NC1CCCC1OCc1ccccc1)C1=NOC2(CCN(S(=O)(=O)c3ccc(Cl)s3)CC2)C1 (centres unmarked) [Example 191] | 74 |  |
| O=C(C1=NOC2(CCN(S(=O)(=O)c3cccc(C(F)(F)F)c3)CC2)C1)N1CCN(c2cc(C(F)(F)F)ccn2)CC1 [Example 119] | 43 |  |
| Cc1ccc(C(C)NC(=O)C2=NOC3(CCN(S(=O)(=O)c4ccc(C)cc4)CC3)C2)cc1 (centres unmarked) [Example 45, 8-(toluene-4-sulphonyl)-1-oxa-2,8-diaza-spiro[4,5]dec-2-ene-3-carboxylic acid (1-p-tolyl-ethyl)-amide] |  | 59 |
| O=C(C1=NOC2(CCN(S(=O)(=O)c3cc(Cl)ccc3Cl)CC2)C1)N1CCN(Cc2ccccc2)CC1 [Example 209, (4-benzyl-piperazin-l-yl)-[8-(2,5-dichloro-benzenesulphonyl)-1-oxa-2,8-diaza-spiro[4,5]dec-2-en-3-yl]-methanone] | 51 |  |
| N#CCCN(CCc1ccccn1)C(=O)C1=NOC2(CCN(S(=O)(=O)c3ccc(F)cc3)CC2)C1 [Example 167, 8-(4-fluoro-benzenesulphonyl)-1-oxa-2,8-diaza-spiro[4,5]dec-2-ene-3-carboxylic acid (2-cyano-ethyl)-(2-pyridin-2-yl-ethyl)-amide] |  | 63 |

Same assay, conditions: rat hypothalamus synaptosomes, 10 µM

| SMILES | NA-uptake, 10 μM, % inhibition [%] |
| --- | --- |
| COc1ccc(S(=O)(=O)N2CCC3(CC2)CC(C(=O)NC2CCCC2OCc2ccccc2)=NO3)cc1 (centres unmarked) [Example 121, 8-(4-methoxy-benzenesulphonyl)-1-oxa-2,8-diaza-spiro[4,5]dec-2-ene-3-carboxylic acid (2-benzyloxy-cyclopentyl)-amide] | 55 |
